Results taken from BigSolDB 2.1.

NC(N)=C([N+](=O)[O-])[N+](=O)[O-]
Details | solubility (mole fraction)
in 1,4-dioxane, 298.15 K | 7.2e-05
in 1,4-dioxane, 314.15 K | 0.000102
in 1,4-dioxane, 326.85 K | 0.000143
in 1,4-dioxane, 339.65 K | 0.000215
in 1,4-dioxane, 341.45 K | 0.000257
in 1,4-dioxane, 347.55 K | 0.000315
in 1,4-dioxane, 358.35 K | 0.000357
in DEF, 298.35 K | 0.0702
in DEF, 314.15 K | 0.0824
in DEF, 324.95 K | 0.0914
in DEF, 340.15 K | 0.102
in DEF, 349.85 K | 0.112
in DEF, 367.45 K | 0.15
in DMF, 297.15 K | 0.0946
in DMF, 310.75 K | 0.109
in DMF, 327.85 K | 0.122
in DMF, 340.15 K | 0.136
in DMF, 352.75 K | 0.148
in DMF, 361.05 K | 0.161
in DMF, 365.15 K | 0.173
in DMSO, 293.75 K | 0.183
in DMSO, 303.85 K | 0.188
in DMSO, 312.15 K | 0.193
in DMSO, 319.15 K | 0.204
in DMSO, 328.65 K | 0.214
in DMSO, 339.85 K | 0.224
in DMSO, 350.15 K | 0.233
in DMSO, 354.15 K | 0.238
in DMSO, 358.15 K | 0.242
in DMSO, 367.15 K | 0.261
in NMP, 295.05 K | 0.163
in NMP, 318.15 K | 0.186
in NMP, 344.45 K | 0.207
in NMP, 363.85 K | 0.227
in NMP, 371.75 K | 0.246
in cyclohexanone, 291.95 K | 0.00244
in cyclohexanone, 320.85 K | 0.00434
in cyclohexanone, 330.95 K | 0.00521
in cyclohexanone, 335.65 K | 0.0061
in cyclohexanone, 343.15 K | 0.00693
in cyclohexanone, 360.85 K | 0.0104
in cyclohexanone, 370.35 K | 0.0138
in ethyl acetate, 296.15 K | 0.000116
in ethyl acetate, 304.95 K | 0.000187
in ethyl acetate, 314.75 K | 0.00027
in ethyl acetate, 318.15 K | 0.000282
in ethyl acetate, 324.35 K | 0.000332
in ethyl acetate, 326.55 K | 0.000368
in ethyl acetate, 334.15 K | 0.000444
in ethyl acetate, 344.65 K | 0.000544
in gamma-butyrolactone, 300.15 K | 0.0064
in gamma-butyrolactone, 304.15 K | 0.0077
in gamma-butyrolactone, 324.55 K | 0.0128
in gamma-butyrolactone, 332.55 K | 0.0153
in gamma-butyrolactone, 336.45 K | 0.0178
in gamma-butyrolactone, 343.45 K | 0.0202
in gamma-butyrolactone, 346.25 K | 0.0227
in gamma-butyrolactone, 350.85 K | 0.0252
in gamma-butyrolactone, 357.85 K | 0.0313
in gamma-butyrolactone, 368.55 K | 0.0373
in water, 296.15 K | 2e-05
in water, 303.45 K | 3.5e-05
in water, 310.75 K | 6e-05
in water, 318.65 K | 0.000122
in water, 326.15 K | 0.000154
in water, 328.55 K | 0.000198
in water, 337.95 K | 0.000277
in water, 343.15 K | 0.000365
in water, 348.75 K | 0.000504
